From patent US9682995B2, “Amino-substituted isothiazoles” (BAYER PHARMA AKTIENGESELLSCHAFT, priority 2013, dated 2017) come the findings set out here.

The target in one test is human kinase Mps-1 (Homo sapiens (Human), UniProt P33981). As to the kind of experiment: Mps-1 kinase assay (TR-FRET). The test is classed as biochemical. Particulars: 10 μM ATP; read-out: Mps1 avg (IC50 [mol/l]). As to the method:
The human kinase Mps-1 phosphorylates a biotinylated substrate peptide. Detection of the phosphorylated product is achieved by time-resolved fluorescence resonance energy transfer (TR-FRET) from Europium-labelled anti-phospho-Serine/Threonine antibody as donor to streptavidin labelled with cross-linked allophycocyanin (SA-XLent) as acceptor. Compounds are tested for their inhibition of the kinase activity.
N-terminally GST-tagged human full length recombinant Mps-1 kinase (purchased from Invitrogen, Karslruhe, Germany, cat. no PV4071) was used. As substrate for the kinase reaction a biotinylated peptide of the amino-acid sequence biotin-Ahx-PWDPDDADITEILG (C-terminus in amide form, purchased from Biosyntan GmbH, Berlin) was used.
For the assay 50 nl of a 100-fold concentrated solution of the test compound in DMSO was pipetted into a black low volume 384 well microtiter plate (Greiner Bio-One, Frickenhausen, Germany), 2 μl of a solution of Mps-1 in assay buffer [0.1 mM sodium-ortho-vanadate, 10 mM MgCl2, 2 mM DTT, 25 mM Hepes pH 7.7, 0.05% BSA (w/v), 0.001% Pluronic F-127] were added and the mixture was incubated for 15 min at 22° C. to allow pre-binding of the test compounds to Mps-1 before the start of the kinase reaction. Then the kinase reaction was started by the addition of 3 μl of a solution of 16.7 μM adenosine-tri-phosphate (ATP, 16.7 μM=>final conc. in the 5 μl assay volume is 10 μM) and peptide substrate (1.67 μM=>final conc. in the 5 μl assay volume is 1 μM) in assay buffer and the resulting mixture was incubated for a reaction time of 60 min at 22° C. The concentration of Mps-1 in the assay was adjusted to the activity of the enzyme lot and was chosen appropriate to have the assay in the linear range, typical enzyme concentrations were in the range of about 0.5 nM (final conc. in the 5 μl assay volume). The reaction was stopped by the addition of 5 μl of a solution of TR-FRET detection reagents (100 mM Hepes pH 7.4, 0.1% BSA, 40 mM EDTA, 140 nM Streptavidin-XLent [#61GSTXLB, Fa. Cis Biointernational, Marcoule, France], 1.5 nM anti-phospho(Ser/Thr)-Europium-antibody [#AD0180, PerkinElmer LAS, Rodgau-Jugesheim, Germany]. Instead of the 1.5 nM anti-phospho(Ser/Thr)-Europium-antibody a mixture of 2 nM unlabeled anti-phospho ser/thr-pro antibody MPM-2 [Millipore cat. #05-368] and 1 nM LANCE EU-W1024 labeled anti-mouse IgG antibody [Perkin-Elmer, product no. AD0077] can be used).
The resulting mixture was incubated 1 h at 22° C. to allow the binding of the phosphorylated peptide to the anti-phospho(Ser/Thr)-Europium-antibody. Subsequently the amount of phosphorylated substrate was evaluated by measurement of the resonance energy transfer from the Europium-labelled anti-phospho(Ser/Thr) antibody to the Streptavidin-XLent. Therefore, the fluorescence emissions at 620 nm and 665 nm after excitation at 350 nm was measured in a Viewlux TR-FRET reader (PerkinElmer LAS, Rodgau-Jugesheim, Germany). The “blank-corrected normalized ratio” (a Viewlux specific readout, similar to the traditional ratio of the emissions at 665 nm and at 622 nm, in which blank and Eu-donor crosstalk are subtracted from the 665 nm signal before the ratio is calculated) was taken as the measure for the amount of phosphorylated substrate. The data were normalised (enzyme reaction without inhibitor=0% inhibition, all other assay components but no enzyme=100% inhibition).

The next test has as its system HeLa. Briefly: Proliferation assay (crystal violet), HeLa. The test is classed as cell-based. Particulars: Homo sapiens, 96 h, 4 days, read-out: Inhibition of proliferation IC50 HeLa. As to the method: Cultivated tumor cells (cells were ordered from ATCC, except HeLa-MaTu and HeLa-MaTu-ADR, which were ordered from EPO-GmbH, Berlin) were plated at a density of 1000 to 5000 cells/well, depending on the growth rate of the respective cell line, in a 96-well multititer plate in 200 μL of their respective growth medium supplemented 10% fetal calf serum. After 24 hours, the cells of one plate (zero-point plate) were stained with crystal violet (see below), while the medium of the other plates was replaced by fresh culture medium (200 μl), to which the test substances were added in various concentrations (0 μM, as well as in the range of 0.001-10 μM; the final concentration of the solvent dimethyl sulfoxide was 0.5%). The cells were incubated for 4 days in the presence of test substances. Cell proliferation was determined by staining the cells with crystal violet: the cells were fixed by adding 20 μl/measuring point of an 11% glutaric aldehyde solution for 15 minutes at room temperature. After three washing cycles of the fixed cells with water, the plates were dried at room temperature. The cells were stained by adding 100 μl/measuring point of a 0.1% crystal violet solution (pH 3.0). After three washing cycles of the stained cells with water, the plates were dried at room temperature. The dye was dissolved by adding 100 μl/measuring point of a 10% acetic acid solution. Absorption was determined by photometry at a wavelength of 595 nm. The change of cell number, in percent, was calculated by normalization of the measured values to the absorption values of the zero-point plate (=0%) and the absorption of the untreated (0 μm) cells (=100%). The IC50 values were determined by means of a 4 parameter fit.

Some results are limits rather than exact numbers.

human kinase Mps-1, sequence (P33981 whole entry): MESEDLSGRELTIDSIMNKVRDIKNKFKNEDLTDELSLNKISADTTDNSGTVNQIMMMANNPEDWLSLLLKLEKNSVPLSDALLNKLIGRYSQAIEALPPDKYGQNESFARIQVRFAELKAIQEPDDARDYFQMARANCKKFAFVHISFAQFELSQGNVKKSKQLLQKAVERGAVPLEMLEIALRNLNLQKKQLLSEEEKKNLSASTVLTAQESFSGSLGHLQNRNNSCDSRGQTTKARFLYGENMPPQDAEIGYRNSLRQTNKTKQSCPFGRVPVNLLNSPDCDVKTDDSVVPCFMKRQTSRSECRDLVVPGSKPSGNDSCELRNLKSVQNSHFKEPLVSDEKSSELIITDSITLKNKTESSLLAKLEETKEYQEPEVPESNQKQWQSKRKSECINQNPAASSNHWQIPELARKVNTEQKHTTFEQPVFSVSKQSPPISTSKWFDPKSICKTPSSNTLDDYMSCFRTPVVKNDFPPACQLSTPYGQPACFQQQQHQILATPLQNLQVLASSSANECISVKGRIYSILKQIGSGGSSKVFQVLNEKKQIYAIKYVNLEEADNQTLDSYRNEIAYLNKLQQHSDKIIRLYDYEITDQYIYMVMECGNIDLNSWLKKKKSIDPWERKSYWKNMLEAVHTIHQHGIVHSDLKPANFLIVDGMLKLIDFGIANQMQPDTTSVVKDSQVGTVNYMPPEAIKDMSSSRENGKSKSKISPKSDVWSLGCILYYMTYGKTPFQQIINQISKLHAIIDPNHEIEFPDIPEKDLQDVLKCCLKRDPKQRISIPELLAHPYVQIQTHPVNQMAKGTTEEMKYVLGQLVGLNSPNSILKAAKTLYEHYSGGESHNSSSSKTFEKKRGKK

Turning to `CCc1ccccc1NC(=O)c1c(C)nsc1Nc1cnccn1` [Example 1, N-(2-Ethylphenyl)-3-methyl-5-(pyrazin-2-ylamino)-1,2-thiazole-4-carboxamide], the IC50 was over 20 µM at human kinase Mps-1 and 8.8 µM with HeLa. Take `CCc1ccccc1NC(=O)c1c(C)nsc1Nc1ccnc(C#N)n1` [Example 6, 5-[(2-Cyanopyrimidin-4-yl)amino]-N-(2-ethylphenyl)-3-methyl-1,2-thiazole-4-carboxamide]: the IC50 was over 20 µM at human kinase Mps-1 and 3.2 µM in the test on HeLa. The matching figures for `CCc1ccccc1NC(=O)c1c(C)nsc1Nc1ccc(C#N)cn1` [Example 7, 5-[(5-Cyanopyridin-2-yl)amino]-N-(2-ethylphenyl)-3-methyl-1,2-thiazole-4-carboxamide]: over 20 µM and 3 µM.

As for `CCc1ccccc1NC(=O)c1c(C)nsc1Nc1ncccc1C#N` [Example 8, 5-[(3-Cyanopyridin-2-yl)amino]-N-(2-ethylphenyl)-3-methyl-1,2-thiazole-4-carboxamide], the IC50 at human kinase Mps-1 was over 20 µM; with HeLa, over 10 µM. The matching figures for `CCc1ccccc1NC(=O)c1c(C)nsc1Nc1cc(-n2ccnc2)ncn1` [Example 9, N-(2-Ethylphenyl)-5-{[6-(1H-imidazol-1-yl)pyrimidin-4-yl]amino}-3-methyl-1,2-thiazole-4-carboxamide]: over 20 µM and 2.4 µM. Consider `CCc1ccccc1NC(=O)c1c(C)nsc1Nc1ncnc2ccccc12` [Example 10, N-(2-Ethylphenyl)-3-methyl-5-(quinazolin-4-ylamino)-1,2-thiazole-4-carboxamide], for which the IC50 at human kinase Mps-1 is over 20 µM; in the test on HeLa it was 7.2 µM. For `CCc1ccccc1NC(=O)c1c(C)nsc1Nc1nc2ccccc2o1` [Example 11, 5-(1,3-Benzoxazol-2-ylamino)-N-(2-ethylphenyl)-3-methyl-1,2-thiazole-4-carboxamide], in that order: over 20 µM and 3.7 µM.

In the case of `CCc1ccccc1NC(=O)c1c(C)nsc1Nc1ncnc2sccc12` [Example 12, N-(2-Ethylphenyl)-3-methyl-5-(thieno[2,3-d]pyrimidin-4-ylamino)-1,2-thiazole-4-carboxamide], the IC50 on human kinase Mps-1 is over 20 µM; in the test on HeLa, 9.5 µM. For `CCc1ccccc1NC(=O)c1c(C)nsc1Nc1ncnc2ccsc12` [Example 13, N-(2-Ethylphenyl)-3-methyl-5-(thieno[3,2-d]pyrimidin-4-ylamino)-1,2-thiazole-4-carboxamide], in that order: over 20 µM and over 10 µM. For `CCc1ccccc1NC(=O)c1c(C)nsc1Nc1nc2ccccc2s1` [Example 14, 5-(1,3-Benzothiazol-2-ylamino)-N-(2-ethylphenyl)-3-methyl-1,2-thiazole-4-carboxamide], in that order: over 20 µM and 1 µM. The matching figures for `CCc1ccccc1NC(=O)c1c(C)nsc1Nc1cc(NC)ncn1` [Example 15, N-(2-Ethylphenyl)-3-methyl-5-{[6-(methylamino)pyrimidin-4-yl]amino}-1,2-thiazole-4-carboxamide]: over 20 µM and over 10 µM.

In the case of `CCc1ccccc1NC(=O)c1c(C)nsc1Nc1nccc(OC)n1` [Example 16, N-(2-Ethylphenyl)-5-[(4-methoxypyrimidin-2-yl)amino]-3-methyl-1,2-thiazole-4-carboxamide], the IC50 was over 20 µM at human kinase Mps-1 and over 10 µM with HeLa. For `CCc1ccnc(Nc2snc(C)c2C(=O)Nc2ccccc2CC)n1` [Example 17, N-(2-Ethylphenyl)-5-[(4-ethylpyrimidin-2-yl)amino]-3-methyl-1,2-thiazole-4-carboxamide], in that order: over 20 µM and over 10 µM.

On to `CCc1ccccc1NC(=O)c1c(C)nsc1Nc1cc(C(F)(F)F)ccn1` [Example 18, N-(2-Ethylphenyl)-3-methyl-5-{[4-(trifluoromethyl)pyridin-2-yl]amino}-1,2-thiazole-4-carboxamide], for which the IC50 at human kinase Mps-1 is over 20 µM; in the test with HeLa it was 7.5 µM. Regarding `CCc1ccccc1NC(=O)c1c(C)nsc1Nc1cnc2ccccc2n1` [Example 19, N-(2-Ethylphenyl)-3-methyl-5-(quinoxalin-2-ylamino)-1,2-thiazole-4-carboxamide], the values for the IC50 at human kinase Mps-1 and in the test with HeLa were over 20 µM and 2.5 µM, respectively. For `CCc1ccccc1NC(=O)c1c(C)nsc1Nc1cnc2cc(F)ccc2n1` [Example 20, N-(2-Ethylphenyl)-5-[(6-fluoroquinoxalin-2-yl)amino]-3-methyl-1,2-thiazole-4-carboxamide], in that order: over 20 µM and 1.1 µM.

For the compound `CCc1ccccc1NC(=O)c1c(C)nsc1Nc1nc2ccccc2nc1C` [Example 21, N-(2-Ethylphenyl)-3-methyl-5-[(3-methylquinoxalin-2-yl)amino]-1,2-thiazole-4-carboxamide], the IC50 was over 20 µM at human kinase Mps-1 and over 10 µM with HeLa.

With `COc1ccc(NC(=O)c2c(C)nsc2Nc2cnc3cccc(C)c3n2)cn1` [Example 22, N-(6-methoxypyridin-3-yl)-3-methyl-5-[(8-methylquinoxalin-2-yl)amino]-1,2-thiazole-4-carboxamide], the figures for the IC50 on human kinase Mps-1 and in the test on HeLa were over 20 µM and 1.3 µM, respectively. For `COc1ccc(NC(=O)c2c(C)nsc2Nc2cnc3cc(Cl)ccc3n2)cn1` [Example 23, 5-[(6-Chloroquinoxalin-2-yl)amino]-N-(6-methoxypyridin-3-yl)-3-methyl-1,2-thiazole-4-carboxamide], in that order: over 20 µM and 1.8 µM. As for `COc1ccc(NC(=O)c2c(C)nsc2Nc2nccnc2C#N)cn1` [Example 24, 5-[(3-Cyanopyrazin-2-yl)amino]-N-(6-methoxypyridin-3-yl)-3-methyl-1,2-thiazole-4-carboxamide], the IC50 on human kinase Mps-1 is over 20 µM; in the test with HeLa, over 10 µM. In the case of `Cc1nsc(Nc2cc(C#N)ccn2)c1C(=O)Nc1ccc(Oc2ccccc2)nc1` [Example 111, 5-[(4-Cyanopyridin-2-yl)amino]-3-methyl-N-(6-phenoxypyridin-3-yl)-1,2-thiazole-4-carboxamide], the IC50 in the test with HeLa was found to be 2.1 µM.

Consider `Cc1nsc(Nc2cc(C#N)ccn2)c1C(=O)Nc1ccc(Oc2ccc(F)cc2F)nc1` [Example 114, 5-[(4-Cyanopyridin-2-yl)amino]-N-[6-(2,4-difluorophenoxy)pyridin-3-yl]-3-methyl-1,2-thiazole-4-carboxamide], for which the IC50 in the test with HeLa worked out at 1.1 µM.
